In US7915267B2, “Heterocyclic amide compound and use thereof” (Takeda Pharmaceutical Company Limited, priority 2005, dated 2011):

biological target: T1, MMP-13 (Homo sapiens, UniProt P45452); assay: MMP-13 inhibitory activity (fluorogenic substrate Cy3-PLGLK(Cy5Q)AR-NH2 enzyme assay); assay type: biochemical; settings: compound 1 μM; 37° C., 40 min; APMA-activated MMP-13 precursor; read-out: MMP-13 inhibitory rate (%) at 1 μM
T1 construct: purchased GenzymeTechne
Protocol: To 10 μg of MMP-13 precursor (GenzymeTechne) was added 1 ml of assay buffer (50 mM Tris-HCl (pH 7.5), 10 mM CaCl2, 150 mM NaCl, 0.05% Brij-35), and 4-aminophenylmercuric acid (Sigma) was added to the final concentration of 1 mM. The MMP-13 precursor was activated by incubating at 37° C. for 2 hr.
In a 96 well black plate (Corning), to 6.3 ng/ml of MMP-13 solution (49 μl) diluted with assay buffer was added the test compound (1 μl) diluted with dimethyl sulfoxide (DMSO) and 620 nM Cy3-PLGLK(Cy5Q)AR-NH2 (50 μl, synthesized by Amersham Biosciences) in assay buffer was added to start the enzyme reaction. After incubation at 37° C. for 40 min, 500 mM EDTA solution (6 μl) was added to stop the reaction. For measurement, Farcyte (Amersham Biosciences) was used to measure at excitation wavelength 535 nm and measurement wavelength 595 nm.
T: value of well with addition of DMSO instead of test compound
C: value of well with addition of DMSO instead of test compound and addition of EDTA solution before addition of substrate solution
X: value of well with addition of test compound

SMILES	inhibition at 1 µM
O=C(NCc1cccc(COCc2nc[nH]n2)c1)c1nc2ccccc2c(=O)[nH]1 [Example 30, 4-oxo-N-[(3-{[(1H-1,2,4-triazol-3-ylmethyl)oxy]methyl}phenyl)methyl]-3,4-dihydroquinazoline-2-carboxamide]	96%
N#Cc1ccc2nc(C(=O)NCc3cccc(CNC(=O)Cc4nc[nH]n4)c3)[nH]c(=O)c2c1 [Example 34, 6-cyano-4-oxo-N-[(3-{[(1H-1,2,4-triazol-3-ylacetyl)amino]methyl}phenyl)methyl]-3,4-dihydroquinazoline-2-carboxamide]	90%
O=C(NCc1cccc(OCCSc2nc[nH]n2)c1)c1nc2sccc2c(=O)[nH]1 [Example 11, 4-oxo-N-[(3-{[2-(1H-1,2,4-triazol-3-ylthio)ethyl]oxy}phenyl)methyl]-3,4-dihydrothieno[2,3-d]pyrimidine-2-carboxamide]	97%
Cc1sc2nc(C(=O)NCc3cccc(OCCSc4nc[nH]n4)c3)[nH]c(=O)c2c1C [Example 14, 5,6-dimethyl-4-oxo-N-[(3-{[2-(1H-1,2,4-triazol-3-ylthio)ethyl]oxy}phenyl)methyl]-3,4-dihydrothieno[2,3-d]pyrimidine-2-carboxamide]	98%
N#Cc1ccc2nc(C(=O)NCc3cccc(OCCSc4nc[nH]n4)c3)[nH]c(=O)c2c1 [Example 2, 6-cyano-4-oxo-N-[(3-{[2-(1H-1,2,4-triazol-3-ylthio)ethyl]oxy}phenyl)methyl]-3,4-dihydroquinazoline-2-carboxamide]	97%
Nc1ccc2nc(C(=O)NCc3cccc(OCCSc4nc[nH]n4)c3)[nH]c(=O)c2c1 [Example 7, 6-amino-4-oxo-N-[(3-{[2-(1H-1,2,4-triazol-3-ylthio)ethyl]oxy}phenyl)methyl]-3,4-dihydroquinazoline-2-carboxamide]	97%

Second part, the molecule after the results:

inhibition at 1 µM	SMILES
100%	O=C(O)c1ccc(CCOc2c(F)ccc3nc(C(=O)NCc4cccc(OCCOc5nc[nH]n5)c4)[nH]c(=O)c23)cc1 [Example 46, 4-(2-{[6-fluoro-4-oxo-2-({[(3-{[2-(1H-1,2,4-triazol-3-yloxy)ethyl]oxy}phenyl)methyl]amino}carbonyl)-3,4-dihydroquinazolin-5-yl]oxy}ethyl)benzoic acid]
96%	CCOC(=O)c1ccc(COCc2csc3nc(C(=O)NCc4ccnc(OCCCc5nc[nH]n5)c4)[nH]c(=O)c23)cc1 [Example 41, ethyl 4-[({[4-oxo-2-({[(2-{[3-(1H-1,2,4-triazol-3-yl)propyl]oxy}pyridin-4-yl)methyl]amino}carbonyl)-3,4-dihydrothieno[2,3-d]pyrimidin-5-yl]methyl}oxy)methyl]benzoate]
94%	O=C(CCCOc1cccc(CNC(=O)c2nc3ccccc3c(=O)[nH]2)c1)Nc1nc[nH]n1 [Example 40, 4-oxo-N-[(3-{[4-oxo-4-(1H-1,2,4-triazol-3-ylamino)butyl]oxy}phenyl)methyl]-3,4-dihydroquinazoline-2-carboxamide]
81%	Cc1csc2nc(C(=O)NCc3cccc(NC(=O)c4nc[nH]n4)c3)[nH]c(=O)c12 [Example 39, 5-methyl-4-oxo-N-({3-[(1H-1,2,4-triazol-3-ylcarbonyl)amino]phenyl}methyl)-3,4-dihydrothieno[2,3-d]pyrimidine-2-carboxamide]
